“Also recorded” adds a separate entry of the source.
Assays:
Type in all cases: in vivo, Caenorhabditis elegans
nematodes [1] = assay: slowing response: number of body bends over 20 seconds on drug-containing assay plate; details: acute treatment on plate containing no feed
Protocol: Nematodes were bred on a lawn of E. coli OP50 coated on a 60-mm NGM plate (Genetics, 77, pp. 71-94, 1974) in an incubator at 20° C.
MAP hydrochloride was dissolved in sterilized pure water at a 100-fold concentration, and 50 μL of the solution was applied to a 35-mm NGM plate (5 mL). As a control group, sterilized water used as a solvent was similarly applied to prepare an assay plate. Apomorphine (hereinafter also abbreviated as “APO”) dissolved in 0.1% aqueous ascorbic acid as a solvent was applied as a solution of 100-fold concentration in a similar manner to prepare an assay plate. For a control group, 0.1% aqueous ascorbic acid was used. The periphery of each assay plate was applied with a 3.5 mol/L sucrose solution to prevent nematodes from invading the back of the plate. Adult-stage nematodes bred on the E. coli lawn were washed with S-basal buffer (Genetics, 77, pp. 71-94, 1974), then transferred to each of the aforementioned assay plates, and left at room temperature with light shielding for one hour in the MAP treatment or 30 minutes in the APO treatment, and the number of body bends over 20 seconds was counted under a stereoscopic microscope. […]

nematodes [2] = assay: imipramine treatment: number of eggs laid during 90 minutes
Protocol: Nematodes washed with S-basal buffer were transferred onto a 35-mm assay plate prepared by applying imipramine (hereinafter abbreviated as “IMI”) in the same manner as that used for MAP, and the number of eggs laid during 90 minutes was counted. Five nematodes were transferred to each plate, and the count was obtained for each plate.

nematodes [3] = assay: behavioral sensitization analysis: MAP pretreatment, washout on E. coli lawn, then drug challenge and body bend count
Protocol: MAP hydrochloride was dissolved in sterilized pure water at a 100-fold concentration, and 50 μL of the solution was applied to a 35-mm NGM plate (5 mL). As a control group, sterilized water used as a solvent was similarly applied to prepare an assay plate. Apomorphine (hereinafter also abbreviated as “APO”) dissolved in 0.1% aqueous ascorbic acid as a solvent was applied as a solution of 100-fold concentration in a similar manner to prepare an assay plate. For a control group, 0.1% aqueous ascorbic acid was used. The periphery of each assay plate was applied with a 3.5 mol/L sucrose solution to prevent nematodes from invading the back of the plate. Adult-stage nematodes bred on the E. coli lawn were washed with S-basal buffer (Genetics, 77, pp. 71-94, 1974), then transferred to each of the aforementioned assay plates, and left at room temperature with light shielding for one hour in the MAP treatment or 30 minutes in the APO treatment, and the number of body bends over 20 seconds was counted under a stereoscopic microscope. In the behavioral sensitization analysis, nematodes treated on the MAP-containing NGM plate for one hour were returned to the E. coli lawn, bred at 20° C. for a predetermined time and then treated with various drugs, and their behavior was observed.

nematodes [4] = assay: screening for chemical substance inhibiting establishment of MAP-induced behavioral sensitization; details: ondansetron 1 or 10 μM with 300 μM MAP and overnight; MAP challenge next day
Protocol: In an incubator inside of which was maintained at 20° C., nematodes were bred on an Escherichia coli lawn prepared by applying the E. coli OP50 strain on a 60-mm NGM plate (Genetics, 77, pp. 71-94, 1974).
MAP hydrochloride was dissolved in pure water to prepare a 30 mM solution, and 50 μL of the solution was applied to a 35-mm NGM plate (5 mL) to prepare a 300 μM MAP plate. This MAP plate was further applied with 50 μL of an ondansetron solution (0.1 or 1 mM) dissolved in 100 mM NaCl or 0.1 N hydrochloric acid and adjusted to neutral pH by using NaOH to complete an assay plate. Nematodes (adults) bred on the Escherichia coli lawn were washed with S-basal buffer (Genetics, 77, pp. 71-94, 1974) for a short period of time, and then incubated on each of the aforementioned assay plates at 20° C. for one hour with light shielding. For this procedure, the periphery of each assay plate was applied with a 3.5 M sucrose solution to prevent nematodes from invading the back of the assay plate. […] On the following day, the nematodes were washed with S-basal buffer for a short period of time and transferred onto a MAP challenge plate prepared by applying 50 μL of a 10 μM MAP solution on a 35-mm NGM plate (5 mL), and the number of body bends over 20 seconds was counted under a stereoscopic microscope.

CN1CCc2cccc3c2[C@H]1Cc1ccc(O)c(O)c1-3 [APO, Apomorphine]
locomotion (slowing response) (nematodes [1]): induced slowing responses in a concentration-dependent manner; also recorded: inhibited the locomotion in a concentration-dependent manner

CN(C)CCCN1c2ccccc2CCc2ccccc21 [IMI, imipramine]
egg laying behavior (nematodes [2]; IMI applied on NGM plate, eggs laid during 90 minutes): increased egg laying behavior in a concentration-dependent manner; also recorded: promoted egg laying in a concentration-dependent manner

CN[C@@H](C)Cc1ccccc1 [MAP, methamphetamine]
locomotion (slowing response) (nematodes [1]): inhibited locomotion of nematodes in a concentration-dependent manner; also recorded: inhibited the locomotion in a concentration-dependent manner | susceptibility to MAP-induced slowing response (establishment of behavioral sensitization) (nematodes [3]; 300 μmol/L MAP experienced on the previous day, MAP challenge next day): increased susceptibility to a treatment with MAP was observed; also recorded: the susceptibility was increased | dependence of establishment of behavioral sensitization on MAP pretreatment concentration (nematodes [3]; MAP pretreatment on previous day at various concentrations): dependent on the MAP concentration used for pretreatment; also recorded: dependent on the concentration of MAP experienced on the previous day | APO-induced slowing response after MAP pretreatment (cross of behavioral sensitization) (nematodes [3]; MAP pretreatment, APO challenge): increased susceptibility to APO and induced slowing responses even at a low concentration; also recorded: enhanced by an MAP pretreatment | duration of MAP-induced behavioral sensitization (nematodes [3]; MAP washout period from pretreatment to challenge): at least 2 days | influence of MAP pretreatment on IMI-induced egg-laying behavior (nematodes [2]; MAP treatment on the previous day, IMI challenge): had no effect on IMI-induced egg-laying behavior; also recorded: had no influence on the egg-laying behavior promoted by IMI

Cc1nccn1CC1CCc2c(c3ccccc3n2C)C1=O (stereo not drawn) [ondansetron]
establishment of MAP-induced behavioral sensitization (nematodes [4]): inhibition of establishment of MAP-induced behavioral sensitization; also recorded: exhibits an antagonistic action on the establishment of MAP-induced behavioral sensitization

— patent US20080038198A1, “Method Of Screening Molecule Associated With Psychiatric Disorder” (MITSUBISHI PHARMA CORPORATION, priority 2004, published 2008)
